On the series, the source says:
We have selected water and ethyl acetate (EtOAc) for their “green solvent” properties of being safe to handle, eco-friendly, little to no hazardous waste, etc.

In the case of yttrium, the Soluble in water result was “soluble”. With scandium, the Soluble in water entry is listed as “soluble”.

Values taken from patent US20250066395A1, “Detecting and Separating Rare Earth Metal Mixtures” (Board of Regents, The University of Texas System, priority 2023, published 2025).
